The record followed here is patent publication US8828989B2, “Oxy-cyclohexyl-4H,6H-5-oxa-2,3,10b-triaza-benzo[E]azulenes as V1A antagonists” (Hoffmann-La Roche Inc., priority 2011, dated 2014).

For the experiment, the target named is T1, human V1a receptor (Homo sapiens, UniProt P37288).
T1 construct: expressed in transfected cells; host or cells: HEK293 cells, transiently transfected (membrane preparation)
T1 sequence (P37288 whole entry): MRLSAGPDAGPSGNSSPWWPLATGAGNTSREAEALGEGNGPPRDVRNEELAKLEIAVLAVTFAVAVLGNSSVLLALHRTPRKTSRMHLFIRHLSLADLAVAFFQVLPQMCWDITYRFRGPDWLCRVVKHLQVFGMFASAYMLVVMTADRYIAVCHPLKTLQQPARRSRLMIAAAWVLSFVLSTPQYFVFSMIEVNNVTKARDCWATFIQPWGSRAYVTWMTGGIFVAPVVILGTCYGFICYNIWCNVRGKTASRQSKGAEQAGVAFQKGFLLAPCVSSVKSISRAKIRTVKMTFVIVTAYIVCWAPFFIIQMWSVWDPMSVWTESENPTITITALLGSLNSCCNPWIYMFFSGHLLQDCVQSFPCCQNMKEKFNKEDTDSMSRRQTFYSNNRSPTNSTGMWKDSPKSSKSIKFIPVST
Kind of experiment: human V1a receptor binding studies (3H-Vasopressin SPA, membranes of transfected HEK293 cells). As to conditions: 3H-Vasopressin displacement, HEK293 cell membranes, Ki by Cheng-Prussoff equation; read-out: pKi hV1a (converted). On the procedure:
The human V1a receptor was cloned by RT-PCR from total human liver RNA. The coding sequence was subcloned in an expression vector after sequencing to confirm the identity of the amplified sequence. […] Cell membranes were prepared from HEK293 cells transiently transfected with the expression vector and grown in 20 liter fermenters with the following protocol.
50 g of cells are resuspended in 30 ml freshly prepared ice cold Lysis buffer (50 mM HEPES, 1 mM EDTA, 10 mM MgCl2 adjusted to pH=7.4+complete cocktail of protease inhibitor (Roche Diagnostics)). Homogenized with Polytron for 1 min and sonicated on ice for 2×2 minutes at 80% intensity (Vibracell sonicator). The preparation is centrifuged 20 min at 500 g at 4° C., the pellet is discarded and the supernatant centrifuged 1 hour at 43,000 g at 4° C. (19,000 rpm). The pellet is resuspended in 12.5 ml Lysis buffer+12.5 ml Sucrose 20% and homogenized using a Polytron for 1-2 min. The protein concentration is determined by the Bradford method and aliquots are stored at −80° C. until use. For binding studies 60 mg Yttrium silicate SPA beads (Amersham) are mixed with an aliquot of membrane in binding buffer (50 mM Tris, 120 mM NaCl, 5 mM KCl, 2 mM CaCl2, 10 mM MgCl2) for 15 minutes with mixing. 50 μl of bead/membrane mixture is then added to each well of a 96 well plate, followed by 50 μl of 4 nM 3H-Vasopressin (American Radiolabeled Chemicals). For total binding measurement 100 μl of binding buffer are added to the respective wells, for non-specific binding 100 μl of […] cold vasopressin and for compound testing 100 μl of a serial dilution of each compound in 2% DMSO. The plate is incubated 1 h at room temperature, centrifuged 1 min at 1000 g and counted on a Packard Top-Count. Non-specific binding counts are subtracted from each well and data is normalized to the maximum specific binding set at 100%. To calculate an IC 50 the curve is fitted using a non-linear regression model (XLfit) and the Ki is calculated using the Cheng-Prussoff equation.
As for `CC(C)O[C@H]1CC[C@H](c2nnc3n2-c2ccc(Cl)cc2COC3)CC1` [Example 1, trans-8-Chloro-1-(4-isopropoxy-cyclohexyl)-4H,6H-5-oxa-2,3,10b-triaza-benzo[e]azulene], the Ki was 19.1 nM.

Take `CCC(C)O[C@H]1CC[C@H](c2nnc3n2-c2ccc(Cl)cc2COC3)CC1` (stereo partly drawn) [Example 2, trans-1-(4-sec-Butoxy-cyclohexyl)-8-chloro-4H,6H-5-oxa-2,3,10b-triaza-benzo[e]azulene]: the Ki is 4.37 nM.

As to `Clc1ccc2c(c1)COCc1nnc([C@H]3CC[C@H](OC4CCCC4)CC3)n1-2` [Example 3, trans-8-Chloro-1-(4-cyclopentyloxy-cyclohexyl)-4H,6H-5-oxa-2,3,10b-triaza-benzo[e]azulene], the Ki is 0.407 nM.

In the case of `Clc1ccc2c(c1)COCc1nnc([C@H]3CC[C@H](Oc4ccccc4)CC3)n1-2` [Example 4, trans-8-Chloro-1-(4-phenoxy-cyclohexyl)-4H,6H-5-oxa-2,3,10b-triaza-benzo[e]azulene], the Ki is 1.32 nM.

On to `Clc1ccc2c(c1)COCc1nnc([C@H]3CC[C@H](Oc4ccccn4)CC3)n1-2` [Example 5, trans-8-Chloro-1-[4-(pyridin-2-yloxy)-cyclohexyl]-4H,6H-5-oxa-2,3,10b-triaza-benzo[e]azulene], for which the Ki was 2.34 nM.

As to `Clc1ccc2c(c1)COCc1nnc([C@H]3CC[C@H](Oc4cnccn4)CC3)n1-2` [Example 6, trans-8-Chloro-1-[4-(pyrazin-2-yloxy)-cyclohexyl]-4H,6H-5-oxa-2,3,10b-triaza-benzo[e]azulene], the Ki is 26.9 nM.
